pIC50: −log10 of the molar value.

Holding throughout (format): cell-based
Assay [1] has as its target T1, Her2 exon 20 YVMA insertion (A775_G776ins YVMA) (Homo sapiens, UniProt P04626, INS775YVMA).
T1 construct: expressed in transfected cells; host or cells: Ba/F3 (murine pro-B) cells, lentiviral transduction with pLVX-IRES puro
Kind of assay: Ba/F3-Her2 Exon20 YVMA cell anti-proliferation assay (MTS). The following applies: Ba/F3-Her2 Exon20 YVMA cells, 72 h, MTS signal. An excerpt: A compound's ability in selectively inhibiting Her2 exon 20 YVMA insertion mutations can be assessed using Ba/F3 cells, a murine pro-B cell line, which have been transduced with Her2 Exon20 YVMA insertions. An expression vector, pLVX-IRES puro (Clontech) coding for human EGFR exon 20 insertions YVMA (A775_G776ins YVMA), was transfected into HEK293 cells by the Trans-Lentiviral ORF Packaging System (Thermo Scientific), to produce virus encoding EGFR exon 20 insertions. Ba/F3 (DSMZ) cells maintained in RPM11640 medium supplemented with 10% fetal bovine serum, 200 pM L-glutamine/200 μg/mL penicillin/200 μg/mL streptomycin (Life Technology) and 10 ng/mL IL-3 (R&D system), were infected by EGFR Exon20 virus and subsequently selected by puromycin (Life Technology) selection and IL-3 depletion. Ba/F3 cells expressing Her2 Exon20 YVMA insertions (named Ba/F3-Her2 Exon20 YVMA) can proliferate in the absence of IL-3. The anti-proliferative activity of compounds was determined as follows: BaF3-Her2 Exon20 YVMA cells seeded in 96 well plates (2500 cells/well) were treated with test compound (dissolved in DMSO) at a series of concentrations (4-fold dilution, top concentration: 10,000 nM). The plates were incubated for 72 h in a 37° C. incubator with 5% CO2, and the number of viable cells in each well were measured indirectly by CellTiter 96® Aqueous One Solution Cell Proliferation Assay (Promega; this assay is a colorimetric method for determining the number of viable cells through measurement of their metabolic activity by detection of enzymatic conversion of tetrazolium salts into blue formazan derivatives). Reagent (20 pL) was added into each well, and the plates were returned to the incubator for 2 h. The absorbance in each well was then measured at 490 nm using an Envision plate reader (Perkin Elmer). IC50 values were calculated by determining the concentration of compound required to decrease the MTS signal by 50% comparing to the DMSO control in best-fit curves using Microsoft XLfit software or Accelrys Pipeline Pilot.

In assay [2] the target is T2, EGFR exon 20 ASV insertion (V769_D770insASV) (Homo sapiens, UniProt P00533, INS769ASV).
T2 construct: expressed in transfected cells; host or cells: Ba/F3 (murine pro-B) cells, lentiviral transduction with pLVX-IRES puro
Kind of assay: Ba/F3-EGFR-Exon20-ASV cell anti-proliferation assay (MTS, CellTiter 96 AQueous One). The conditions noted are these: Ba/F3-EGFR-Exon20-ASV cells, 72 h, MTS signal. The source says:
(§1) A compound's ability in selectively inhibiting EGFR exon 20 insertion mutations can be assessed using Ba/F3 cells, a murine pro-B cell line, which have been transduced with EGFR exon 20 insertions. An expression vector, pLVX-IRES puro (Clontech) coding for human EGFR exon 20 insertions NPG (H773_V774insNPG) or ASV (V769_D770insASV), was transfected into HEK293 cells by the Trans-Lentiviral ORF Packaging System (Thermo Scientific), to produce virus encoding EGFR exon 20 insertions. Ba/F3 (DSMZ) cells maintained in RPM11640 medium supplemented with 10% fetal bovine serum, 200 pM L-glutamine/200 µg/mL penicillin/200 µg/mL streptomycin (Life Technology) and 10 ng/mL IL-3 (R&D system), were infected by EGFR Exon20 virus and subsequently selected by puromycin (Life Technology) selection and IL-3 depletion. Ba/F3 cells expressing EGFR exon 20 insertions (named Ba/F3-EGFR-Exon20-NPG or Ba/F3-EGFR-Exon20-ASV) can proliferate in the absence of IL-3. The anti-proliferative activity of compounds were determined as follows: BaF3-EGFR-Exon20 cells (NPG or ASV) seeded in 96 well plates (2500 cells/well) were treated with test compound (dissolved in DMSO) at a series of concentrations (4-fold dilution, top concentration: 10,000 nM). The plates were incubated for 72 h in a 37° C. incubator with 5% CO2, and the number of viable cells in each well were measured indirectly by CellTiter 96® Aqueous One Solution Cell Proliferation Assay (Promega) This assay is a colorimetric method for determining the number of viable cells through measurement of their metabolic activity by detection of enzymatic conversion of tetrazolium salts into blue formazan derivatives. Reagent (20 pL) was added into each well, and the plates were returned to the incubator for 2 h. The absorbance in each well was then measured at 490 nm using an Envision plate reader (Perkin Elmer). IC50 values were calculated by determining the concentration of compound required to decrease the MTS signal by 50% comparing to the DMSO control in best-fit curves using Microsoft XLfit software or Accelrys Pipeline Pilot.

Assay [3] addresses T3, EGFR exon 19 deletion (E746-A750) and T790M mutation (Homo sapiens, UniProt P00533, DEL746-750/T790M).
T3 construct: expressed in transfected cells; host or cells: Ba/F3 (murine pro-B) cells, lentiviral transduction with pLVX-IRES puro
The assay can be described thus: Ba/F3-EGFR-Del/T790M cell anti-proliferation assay (MTS). The conditions noted are these: Ba/F3-EGFR-Del/T790M cells, 72 h, MTS signal. An excerpt: A compound's ability in selectively inhibiting EGFR exon 19 deletion and T790M concurrent mutations can be assessed using Ba/F3 cells, a murine pro-B cell line, which have been transduced with EGFR exon 19 deletion and T790M mutation. An expression vector, pLVX-IRES puro (Clontech) coding for human EGFR E746-A750 deletion and T790M Mutation, was transfected into HEK293 cells by the Trans-Lentiviral ORF Packaging System (Thermo Scientific), to produce virus encoding EGFR exon 19 deletion and T790M mutations. Ba/F3 (DSMZ) cells maintained in RPM11640 medium supplemented with 10% fetal bovine serum, 200 pM L-glutamine/200 μg/mL penicillin/200 μg/mL streptomycin (Life Technology) and 10 ng/mL IL-3 (R&D system), were infected by EGFR E746-A750 deletion and T790M Mutation virus and subsequently selected by puromycin (Life Technology) selection and IL-3 depletion. Ba/F3 cells expressing EGFR E746-A750 deletion and T790M Mutation (named Ba/F3-EGFR-Del/T790M) can proliferate in the absence of IL-3. The anti-proliferative activity of compounds was determined as follows: BaF3-EGFR-Del/T790M cells seeded in 96 well plates (2500 cells/well) were treated with test compound (dissolved in DMSO) at a series of concentrations (4-fold dilution, top concentration: 10,000 nM). The plates were incubated for 72 h in a 37° C. incubator with 5% CO2, and the number of viable cells in each well were measured indirectly by CellTiter 96® Aqueous One Solution Cell Proliferation Assay (Promega; this assay is a colorimetric method for determining the number of viable cells through measurement of their metabolic activity by detection of enzymatic conversion of tetrazolium salts into blue formazan derivatives). Reagent (20 pL) was added into each well, and the plates were returned to the incubator for 2 h. The absorbance in each well was then measured at 490 nm using an Envision plate reader (Perkin Elmer). IC50 values were calculated by determining the concentration of compound required to decrease the MTS signal by 50% comparing to the DMSO control in best-fit curves using Microsoft XLfit software or Accelrys Pipeline Pilot.

The target of assay [4] is EGFR exon 20 NPG insertion (H773_V774insNPG) (Homo sapiens, UniProt P00533, cells depend on it, form not given). The assay can be described thus: Ba/F3-EGFR-Exon20-NPG cell anti-proliferation assay (MTS, CellTiter 96 AQueous One). The following applies: 72 h, MTS signal.
Description: as §1

T1 sequence (P04626 with tags, fused parts or gaps INS775YVMA): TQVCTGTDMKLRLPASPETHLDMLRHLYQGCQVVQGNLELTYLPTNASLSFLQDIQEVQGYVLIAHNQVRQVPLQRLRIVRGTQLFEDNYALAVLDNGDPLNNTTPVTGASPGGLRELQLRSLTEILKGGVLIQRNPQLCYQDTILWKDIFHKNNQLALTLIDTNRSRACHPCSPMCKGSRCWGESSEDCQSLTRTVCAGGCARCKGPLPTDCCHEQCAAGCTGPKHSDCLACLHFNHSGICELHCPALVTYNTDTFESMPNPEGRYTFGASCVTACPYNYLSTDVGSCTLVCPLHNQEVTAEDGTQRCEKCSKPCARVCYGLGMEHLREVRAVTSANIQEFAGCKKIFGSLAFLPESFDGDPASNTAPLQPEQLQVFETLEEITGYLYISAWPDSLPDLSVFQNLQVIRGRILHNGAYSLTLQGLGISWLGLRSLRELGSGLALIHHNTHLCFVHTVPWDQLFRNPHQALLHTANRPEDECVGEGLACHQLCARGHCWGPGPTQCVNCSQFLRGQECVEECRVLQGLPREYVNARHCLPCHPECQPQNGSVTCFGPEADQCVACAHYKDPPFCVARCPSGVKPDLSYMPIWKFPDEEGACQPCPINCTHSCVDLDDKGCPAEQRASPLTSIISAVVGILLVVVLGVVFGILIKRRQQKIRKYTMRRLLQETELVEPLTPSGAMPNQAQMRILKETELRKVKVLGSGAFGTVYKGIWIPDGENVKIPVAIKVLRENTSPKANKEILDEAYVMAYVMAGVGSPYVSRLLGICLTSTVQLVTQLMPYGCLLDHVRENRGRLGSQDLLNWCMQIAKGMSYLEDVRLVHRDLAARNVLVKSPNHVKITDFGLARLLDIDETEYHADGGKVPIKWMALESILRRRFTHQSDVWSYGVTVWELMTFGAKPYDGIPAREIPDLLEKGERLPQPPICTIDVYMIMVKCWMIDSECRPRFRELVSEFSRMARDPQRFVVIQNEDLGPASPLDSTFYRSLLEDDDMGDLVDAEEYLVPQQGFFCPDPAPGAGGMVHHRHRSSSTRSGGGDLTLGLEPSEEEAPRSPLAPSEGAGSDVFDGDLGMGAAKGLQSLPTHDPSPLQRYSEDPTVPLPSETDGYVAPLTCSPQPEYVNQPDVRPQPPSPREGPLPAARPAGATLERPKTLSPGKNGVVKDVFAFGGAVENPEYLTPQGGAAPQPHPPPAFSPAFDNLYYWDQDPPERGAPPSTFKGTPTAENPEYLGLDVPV
Chain of EGFR exon 20 NPG insertion (H773_V774insNPG) (P00533 with tags, fused parts or gaps INS772GNP, form open): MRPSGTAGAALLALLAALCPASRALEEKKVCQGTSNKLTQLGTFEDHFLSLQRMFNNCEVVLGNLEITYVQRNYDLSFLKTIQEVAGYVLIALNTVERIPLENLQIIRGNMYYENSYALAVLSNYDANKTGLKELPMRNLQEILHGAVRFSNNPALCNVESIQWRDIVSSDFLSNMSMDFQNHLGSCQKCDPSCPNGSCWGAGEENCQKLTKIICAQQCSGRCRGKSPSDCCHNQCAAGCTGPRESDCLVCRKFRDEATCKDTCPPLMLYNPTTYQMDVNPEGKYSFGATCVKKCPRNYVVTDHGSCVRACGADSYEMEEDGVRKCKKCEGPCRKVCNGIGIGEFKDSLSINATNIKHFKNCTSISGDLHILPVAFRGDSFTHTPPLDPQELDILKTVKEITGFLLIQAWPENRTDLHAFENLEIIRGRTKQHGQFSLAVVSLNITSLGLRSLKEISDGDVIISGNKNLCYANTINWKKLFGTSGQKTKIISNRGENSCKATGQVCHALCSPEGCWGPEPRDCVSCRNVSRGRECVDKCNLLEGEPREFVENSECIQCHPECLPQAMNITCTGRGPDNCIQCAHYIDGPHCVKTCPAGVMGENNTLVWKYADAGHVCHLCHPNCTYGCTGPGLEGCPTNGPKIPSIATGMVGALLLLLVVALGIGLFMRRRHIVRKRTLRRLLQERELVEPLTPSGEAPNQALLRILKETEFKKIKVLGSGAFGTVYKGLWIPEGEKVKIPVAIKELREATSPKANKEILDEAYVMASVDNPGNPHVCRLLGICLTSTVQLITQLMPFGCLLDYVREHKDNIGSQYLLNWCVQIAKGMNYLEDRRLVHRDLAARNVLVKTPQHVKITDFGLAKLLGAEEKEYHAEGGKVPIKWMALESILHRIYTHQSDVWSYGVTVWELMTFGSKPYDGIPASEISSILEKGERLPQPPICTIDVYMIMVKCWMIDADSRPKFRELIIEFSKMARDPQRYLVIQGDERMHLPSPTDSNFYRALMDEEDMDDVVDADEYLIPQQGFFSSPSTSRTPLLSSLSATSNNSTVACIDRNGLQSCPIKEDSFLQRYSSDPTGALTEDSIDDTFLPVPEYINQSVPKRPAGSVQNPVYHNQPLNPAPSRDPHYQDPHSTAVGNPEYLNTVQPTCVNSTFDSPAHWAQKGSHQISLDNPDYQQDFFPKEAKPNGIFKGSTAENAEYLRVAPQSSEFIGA
T3 sequence (P00533 with tags, fused parts or gaps DEL746-750/T790M): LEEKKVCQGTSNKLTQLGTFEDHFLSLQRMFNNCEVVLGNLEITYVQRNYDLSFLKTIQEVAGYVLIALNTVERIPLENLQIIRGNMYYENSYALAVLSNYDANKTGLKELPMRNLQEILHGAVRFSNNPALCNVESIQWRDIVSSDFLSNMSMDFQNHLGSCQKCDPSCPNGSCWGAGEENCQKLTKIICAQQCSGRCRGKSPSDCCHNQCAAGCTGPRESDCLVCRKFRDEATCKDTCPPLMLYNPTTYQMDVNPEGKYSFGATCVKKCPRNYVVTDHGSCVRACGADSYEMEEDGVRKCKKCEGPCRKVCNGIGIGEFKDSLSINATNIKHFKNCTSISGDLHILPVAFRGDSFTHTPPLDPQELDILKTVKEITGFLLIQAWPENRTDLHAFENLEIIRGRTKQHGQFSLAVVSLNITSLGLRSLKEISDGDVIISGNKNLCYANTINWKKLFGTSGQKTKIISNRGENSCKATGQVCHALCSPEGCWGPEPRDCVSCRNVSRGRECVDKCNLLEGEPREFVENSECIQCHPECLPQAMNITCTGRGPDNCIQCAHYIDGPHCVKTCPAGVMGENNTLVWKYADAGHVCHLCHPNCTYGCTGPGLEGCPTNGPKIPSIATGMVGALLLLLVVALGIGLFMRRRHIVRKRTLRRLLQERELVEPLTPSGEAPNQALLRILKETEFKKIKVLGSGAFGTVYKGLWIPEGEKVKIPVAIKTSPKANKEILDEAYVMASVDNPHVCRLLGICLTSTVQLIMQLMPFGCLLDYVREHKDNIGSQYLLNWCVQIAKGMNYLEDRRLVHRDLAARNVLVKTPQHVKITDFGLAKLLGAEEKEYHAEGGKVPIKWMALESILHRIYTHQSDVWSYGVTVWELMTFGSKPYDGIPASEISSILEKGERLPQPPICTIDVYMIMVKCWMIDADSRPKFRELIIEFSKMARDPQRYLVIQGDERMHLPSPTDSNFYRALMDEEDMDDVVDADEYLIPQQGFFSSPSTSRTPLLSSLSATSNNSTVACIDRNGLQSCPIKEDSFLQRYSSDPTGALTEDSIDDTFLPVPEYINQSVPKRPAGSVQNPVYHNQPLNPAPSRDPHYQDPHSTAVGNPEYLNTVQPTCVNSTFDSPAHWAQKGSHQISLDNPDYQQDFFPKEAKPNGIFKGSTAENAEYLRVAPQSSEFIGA
T2 sequence (P00533 with tags, fused parts or gaps INS769ASV): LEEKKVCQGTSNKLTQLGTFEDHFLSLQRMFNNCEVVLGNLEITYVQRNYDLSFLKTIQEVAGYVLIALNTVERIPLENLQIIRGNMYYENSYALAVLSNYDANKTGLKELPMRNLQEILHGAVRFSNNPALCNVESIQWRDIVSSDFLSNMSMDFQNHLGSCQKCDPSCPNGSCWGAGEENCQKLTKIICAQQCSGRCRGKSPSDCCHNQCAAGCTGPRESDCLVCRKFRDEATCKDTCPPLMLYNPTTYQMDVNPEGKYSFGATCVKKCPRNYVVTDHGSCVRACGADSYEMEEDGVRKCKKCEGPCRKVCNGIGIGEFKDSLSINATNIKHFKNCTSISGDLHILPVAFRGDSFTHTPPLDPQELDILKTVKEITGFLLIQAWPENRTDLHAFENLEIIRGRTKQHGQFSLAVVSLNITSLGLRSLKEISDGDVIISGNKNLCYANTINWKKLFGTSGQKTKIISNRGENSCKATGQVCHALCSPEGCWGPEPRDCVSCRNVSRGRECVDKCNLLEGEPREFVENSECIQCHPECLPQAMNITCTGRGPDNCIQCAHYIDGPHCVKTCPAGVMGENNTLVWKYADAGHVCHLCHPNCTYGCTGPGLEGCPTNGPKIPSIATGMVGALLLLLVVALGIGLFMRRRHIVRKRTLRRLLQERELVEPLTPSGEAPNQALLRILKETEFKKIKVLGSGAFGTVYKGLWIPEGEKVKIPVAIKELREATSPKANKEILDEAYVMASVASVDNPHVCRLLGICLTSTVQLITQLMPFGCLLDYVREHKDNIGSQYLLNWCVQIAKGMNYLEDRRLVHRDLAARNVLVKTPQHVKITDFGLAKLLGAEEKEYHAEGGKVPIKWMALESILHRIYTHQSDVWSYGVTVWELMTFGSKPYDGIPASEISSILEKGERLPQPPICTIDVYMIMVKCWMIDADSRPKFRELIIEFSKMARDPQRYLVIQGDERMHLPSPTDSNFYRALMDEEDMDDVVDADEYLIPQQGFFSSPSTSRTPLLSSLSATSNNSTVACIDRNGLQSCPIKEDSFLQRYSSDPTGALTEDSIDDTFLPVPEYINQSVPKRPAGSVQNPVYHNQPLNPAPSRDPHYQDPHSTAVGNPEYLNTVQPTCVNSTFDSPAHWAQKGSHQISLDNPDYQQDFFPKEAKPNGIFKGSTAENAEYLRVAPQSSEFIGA

Usually pIC50 stands for the IC50 on a negative log10 scale, so that one unit is a factor of ten. Low values mean a large IC50, high ones a small IC50. For `C=CC(=O)Nc1cc(Nc2ncc(C#N)c(-c3c4n(c5ccccc35)CCOC4)n2)c(OC)cc1N(C)CCN(C)C` [Example 8, N-(5-((5-cyano-4-(3,4-dihydro-1H-[1,4]oxazino[4,3-a]indol-10-yl)pyrimidin-2-yl)amino)-2-((2-(dimethylamino)ethyl)(methyl)amino)-4-methoxyphenyl)acrylamide], the pIC50 in assay [1] is 6.30 to 7.00; in assay [2], 6.30 to 7.00; in assay [4], more than 7.00. Also, the “EGFR exon 19 deletion and T790M mutation IC50” value in assay [3] is “A (Group A compounds have an IC50 value for the indicated mutant below about 100 nM)”.

On to `C=CC(=O)Nc1cc(Nc2ncc(Cl)c(-c3c4n(c5ccccc35)CCOC4)n2)c(OC)cc1N(C)CCN(C)C` [Example 9, N-(5-((5-chloro-4-(3,4-dihydro-1H-[1,4]oxazino[4,3-a]indol-10-yl)pyrimidin-2-yl)amino)-2-((2-(dimethylamino)ethyl)(methyl)amino)-4-methoxyphenyl)acrylamide], for which the pIC50 is less than 6.00 in assay [1], less than 6.00 in assay [2] and 6.00 to 6.30 in assay [4]. For the same compound, in assay [3], the “EGFR exon 19 deletion and T790M mutation IC50” value is listed as “A (Group A compounds have an IC50 value for the indicated mutant below about 100 nM)”.

(Values after patent US20210323976A1, “HETEROARYL COMPOUNDS FOR KINASE INHIBITION” (ARIAD Pharmaceuticals, Inc., priority 2015, published 2021).)
